Source: US20230241256A1, “NON-INTUITIVE COMBINATION OF DRUG DELIVERY CARRIERS OF THE SAME DRUG FOR SYNERGISTIC GROWTH DELAY OF SOLID TUMORS” (The Johns Hopkins University, priority 2020, published 2023)

Experiments:
[1] = system: Trastuzumab-sensitive BT474 breast cancer cells; experiment: Clonogenic (colony) survival, BT474; type: cell-based, human; settings: 6 hour incubation at 37° C.; pH 7.4 or 6.0; monolayers
Protocol: (§1) Cold conditions of liposomes and the antibody are indicated at zero radioactivity concentration. Error bars correspond to standard deviations of repeated measurements (4-6 samples per radioactivity concentration);
(§2) After incubation for 6 hours of cell monolayers with varying concentrations of radioactivity, the cells were washed and were plated in dishes to grow until formation of colonies, as described in detail in Prasad et al., 2021.

[2] = system: Trastuzumab-resistant BT474-R breast cancer cells; experiment: Clonogenic (colony) survival, BT474-R; type: cell-based, human; settings: 6 hour incubation at 37° C.; pH 7.4 or 6.0; monolayers
Protocol: as §1, §2

O=C([O-])CN1CCN(CC(=O)[O-])CCN(CC(=O)[O-])CCN(CC(=O)[O-])CC1.[225Ac+3] [free [^225Ac]Ac-DOTA]
colony survival response [1]: same sensitivity
colony survival response [2]: same sensitivity
